From a compilation of properties of binary mixtures (doi:10.1051/jnwpu/20234130557)

Experiment: xn = mol fraction of the nth substance listed
Conditions: 298.15 K, 101.3 kPa

Question: Which electrical conductivity (x2 = 0.0802) does the source give for `CCCC[n+]1cccc(C)c1.O=S(=O)([N-]S(=O)(=O)C(F)(F)F)C(F)(F)F` + CC(C)O here?
Answer: The electrical conductivity was 0.334 S/m.

Question: What about the electrical conductivity (x2 = 0.1045) of the same compound?
Answer: Its electrical conductivity is 0.41 S/m.

Question: And the electrical conductivity (x2 = 0.1234)?
Answer: The electrical conductivity was 0.462 S/m.

Question: And the electrical conductivity (x2 = 0.1455)?
Answer: The electrical conductivity was 0.511 S/m.

Question: And the electrical conductivity (x2 = 0.177)?
Answer: The electrical conductivity was 0.566 S/m.

Question: What about the electrical conductivity (x2 = 0.2193) of the same compound?
Answer: Its electrical conductivity is 0.613 S/m.

Question: What about the electrical conductivity (x2 = 0.2497) of the same compound?
Answer: The electrical conductivity was 0.633 S/m.

Question: What about the electrical conductivity (x2 = 0.4682) of the same compound?
Answer: Its electrical conductivity is 0.587 S/m.

Question: What about the electrical conductivity (x2 = 0.6921) of the same compound?
Answer: Its electrical conductivity is 0.441 S/m.

Question: What about the electrical conductivity (x2 = 0.9362) of the same compound?
Answer: The electrical conductivity was 0.3 S/m.

Question: Which electrical conductivity (x2 = 0.2427) does the source give for `CCCC[n+]1cccc(C)c1.O=S(=O)([N-]S(=O)(=O)C(F)(F)F)C(F)(F)F` + CCO here?
Answer: Its electrical conductivity is 0.445 S/m.

Question: And the electrical conductivity (x2 = 0.5689)?
Answer: Its electrical conductivity is 0.809 S/m.

Question: What about the electrical conductivity (x2 = 0.7583) of the same compound?
Answer: The electrical conductivity was 1.04 S/m.

Question: And the electrical conductivity (x2 = 0.8896)?
Answer: The electrical conductivity was 0.992 S/m.

Question: What about the electrical conductivity (x2 = 0.9196) of the same compound?
Answer: Its electrical conductivity is 0.883 S/m.

Question: What about the electrical conductivity (x2 = 0.9371) of the same compound?
Answer: Its electrical conductivity is 0.783 S/m.

Question: Which electrical conductivity (x1 = 1) does the source give for `CC(C)O` + CCCC[n+]1cccc(C)c1.O=S(=O)([N-]S(=O)(=O)C(F)(F)F)C(F)(F)F here?
Answer: The electrical conductivity was 0.27 S/m.

Question: Which electrical conductivity (x2 = 0) does the source give for `CCCC[n+]1cccc(C)c1.O=S(=O)([N-]S(=O)(=O)C(F)(F)F)C(F)(F)F` + CO here?
Answer: The electrical conductivity was 0.273 S/m.

Question: And the electrical conductivity (x2 = 0.2345)?
Answer: The electrical conductivity was 0.453 S/m.

Question: And the electrical conductivity (x2 = 0.5544)?
Answer: The electrical conductivity was 0.951 S/m.

Question: What about the electrical conductivity (x2 = 0.7016) of the same compound?
Answer: Its electrical conductivity is 1.38 S/m.

Question: What about the electrical conductivity (x2 = 0.8346) of the same compound?
Answer: The electrical conductivity was 1.93 S/m.

Question: What about the electrical conductivity (x2 = 0.882) of the same compound?
Answer: The electrical conductivity was 2.1 S/m.

Question: And the electrical conductivity (x2 = 0.9199)?
Answer: The electrical conductivity was 2.13 S/m.
